# Measurements published in PubChem BioAssay AID1259407 (Chemical Carcinogenesis Research Information System (CCRIS), 2018).
# Activity calls are given as the source filed them. No rule for the calls is given here.
# Test system: CCRIS mutagenicity, Ames/micronucleus/aberration tests
# Assay: CCRIS mutagenicity studies
# [1] = Test System: AMES SALMONELLA TYPHIMURIUM, Strain/Indicator: TA100, Metabolic Activation: NONE, Method: PREINCUBATION
# [2] = Test System: AMES SALMONELLA TYPHIMURIUM, Strain/Indicator: TA1535, Metabolic Activation: NONE, Method: PREINCUBATION
# [3] = Test System: AMES SALMONELLA TYPHIMURIUM, Strain/Indicator: TA98, Metabolic Activation: NONE, Method: STANDARD PLATE
# [4] = Test System: AMES SALMONELLA TYPHIMURIUM, Strain/Indicator: TA98, Metabolic Activation: RAT, LIVER, S-9, AROCLOR 1254, Method: STANDARD PLATE
# [5] = Test System: AMES SALMONELLA TYPHIMURIUM, Strain/Indicator: TA100, Metabolic Activation: NONE, Method: STANDARD PLATE
# [6] = Test System: AMES SALMONELLA TYPHIMURIUM, Strain/Indicator: TA100, Metabolic Activation: RAT, LIVER, S-9, AROCLOR 1254, Method: STANDARD PLATE
# [7] = Test System: AMES SALMONELLA TYPHIMURIUM, Strain/Indicator: TA1535, Metabolic Activation: NONE, Method: STANDARD PLATE
smiles,measurement,setting,value
CC(C)(C)OCC1CO1 (configuration not stated),mutagenic call,"Test System: AMES SALMONELLA TYPHIMURIUM, Strain/Indicator: TA100, Metabolic Activation: HAMSTER, LIVER, S-9, AROCLOR 1254 (30%), Method: PREINCUBATION",active; positive
same,mutagenic call,[1],active; positive
same,mutagenic call,"Test System: AMES SALMONELLA TYPHIMURIUM, Strain/Indicator: TA100, Metabolic Activation: RAT, LIVER, S-9, AROCLOR 1254 (30%), Method: PREINCUBATION",active; positive
same,mutagenic call,"Test System: AMES SALMONELLA TYPHIMURIUM, Strain/Indicator: TA1535, Metabolic Activation: HAMSTER, LIVER, S-9, AROCLOR 1254 (30%), Method: PREINCUBATION",active; positive
same,mutagenic call,[2],active; positive
same,mutagenic call,"Test System: AMES SALMONELLA TYPHIMURIUM, Strain/Indicator: TA1535, Metabolic Activation: RAT, LIVER, S-9, AROCLOR 1254 (30%), Method: PREINCUBATION",active; positive
O[C@@H]1C=Cc2c(ccc3c2sc2ccccc23)[C@H]1O,mutagenic call,"Test System: AMES SALMONELLA TYPHIMURIUM, Strain/Indicator: TA100, Metabolic Activation: RAT, LIVER, S-9, AROCLOR 1254, Method: PREINCUBATION",active; positive
O=C(Nc1ccc2c(O)c(N=Nc3ccc(N=Nc4ccc(S(=O)(=O)O)cc4)cc3)c(S(=O)(=O)O)cc2c1)c1ccccc1,mutagenic call,[3],inactive; negative
same,mutagenic call,[4],inactive; negative
same,mutagenic call,[5],inactive; negative
same,mutagenic call,[6],inactive; negative
same,mutagenic call,[7],inactive; negative
same,mutagenic call,"Test System: AMES SALMONELLA TYPHIMURIUM, Strain/Indicator: TA1535, Metabolic Activation: RAT, LIVER, S-9, AROCLOR 1254, Method: STANDARD PLATE",inactive; negative
same,mutagenic call,"Test System: AMES SALMONELLA TYPHIMURIUM, Strain/Indicator: TA1537, Metabolic Activation: NONE, Method: STANDARD PLATE",inactive; negative
same,mutagenic call,"Test System: AMES SALMONELLA TYPHIMURIUM, Strain/Indicator: TA1537, Metabolic Activation: RAT, LIVER, S-9, AROCLOR 1254, Method: STANDARD PLATE",inactive; negative
same,mutagenic call,"Test System: AMES SALMONELLA TYPHIMURIUM, Strain/Indicator: TA1538, Metabolic Activation: NONE, Method: STANDARD PLATE",inactive; negative
same,mutagenic call,"Test System: AMES SALMONELLA TYPHIMURIUM, Strain/Indicator: TA1538, Metabolic Activation: RAT, LIVER, S-9, AROCLOR 1254, Method: STANDARD PLATE",inactive; negative
c1ccc2c(OCC3CO3)cccc2c1 (configuration not stated),mutagenic call,[5],active; positive
same,mutagenic call,"Test System: AMES SALMONELLA TYPHIMURIUM, Strain/Indicator: TA104, Metabolic Activation: NONE, Method: STANDARD PLATE",active; positive
same,mutagenic call,[7],active; positive
same,mutagenic call,"Test System: AMES SALMONELLA TYPHIMURIUM, Strain/Indicator: TA4001, Metabolic Activation: NONE, Method: STANDARD PLATE",active; positive
same,mutagenic call,"Test System: AMES SALMONELLA TYPHIMURIUM, Strain/Indicator: TA4006, Metabolic Activation: NONE, Method: STANDARD PLATE",active; positive
c1ccc(-c2cccc(-c3ccccn3)n2)nc1,mutagenic call,"Test System: AMES SALMONELLA TYPHIMURIUM, Strain/Indicator: TA97, Metabolic Activation: RAT, LIVER, S-9, PHENOBARBITAL, Method: STANDARD PLATE",active; positive
same,mutagenic call,"Test System: AMES SALMONELLA TYPHIMURIUM, Strain/Indicator: TA98, Metabolic Activation: RAT, LIVER, S-9, PHENOBARBITAL, Method: STANDARD PLATE",inactive; negative
same,mutagenic call,"Test System: AMES SALMONELLA TYPHIMURIUM, Strain/Indicator: TA100, Metabolic Activation: RAT, LIVER, S-9, PHENOBARBITAL, Method: STANDARD PLATE",active; positive
same,mutagenic call,"Test System: AMES SALMONELLA TYPHIMURIUM, Strain/Indicator: TA1535, Metabolic Activation: RAT, LIVER, S-9, PHENOBARBITAL, Method: STANDARD PLATE",inactive; negative
same,mutagenic call,"Test System: AMES SALMONELLA TYPHIMURIUM, Strain/Indicator: TA1537, Metabolic Activation: RAT, LIVER, S-9, PHENOBARBITAL, Method: STANDARD PLATE",inactive; negative
same,mutagenic call,"Test System: AMES SALMONELLA TYPHIMURIUM, Strain/Indicator: TA1538, Metabolic Activation: RAT, LIVER, S-9, PHENOBARBITAL, Method: STANDARD PLATE",inactive; negative
C[O+](C)C.[Cl][Sb-]([Cl])([Cl])([Cl])([Cl])[Cl],mutagenic call,"Test System: AMES SALMONELLA TYPHIMURIUM, Strain/Indicator: TA98, Metabolic Activation: NONE, Method: PREINCUBATION",inactive; negative
same,mutagenic call,"Test System: AMES SALMONELLA TYPHIMURIUM, Strain/Indicator: TA98, Metabolic Activation: RAT, LIVER, S-9, AROCLOR 1254 (10%), Method: PREINCUBATION",inactive; negative
same,mutagenic call,[1],inactive; negative
same,mutagenic call,"Test System: AMES SALMONELLA TYPHIMURIUM, Strain/Indicator: TA1535, Metabolic Activation: HAMSTER, LIVER, S-9, AROCLOR 1254 (10%), Method: PREINCUBATION",inactive; negative
same,mutagenic call,[2],inactive; negative
same,mutagenic call,"Test System: AMES SALMONELLA TYPHIMURIUM, Strain/Indicator: TA1535, Metabolic Activation: RAT, LIVER, S-9, AROCLOR 1254 (10%), Method: PREINCUBATION",inactive; negative
same,mutagenic call,"Test System: AMES SALMONELLA TYPHIMURIUM, Strain/Indicator: TA1537, Metabolic Activation: HAMSTER, LIVER, S-9, AROCLOR 1254 (10%), Method: PREINCUBATION",inactive; negative
same,mutagenic call,"Test System: AMES SALMONELLA TYPHIMURIUM, Strain/Indicator: TA1537, Metabolic Activation: NONE, Method: PREINCUBATION",inactive; negative
same,mutagenic call,"Test System: AMES SALMONELLA TYPHIMURIUM, Strain/Indicator: TA1537, Metabolic Activation: RAT, LIVER, S-9, AROCLOR 1254 (10%), Method: PREINCUBATION",inactive; negative
same,mutagenic call,"Test System: MOUSE LYMPHOMA, Strain/Indicator: L5178Y (TK+/TK-), Metabolic Activation: RAT, LIVER, S-9, AROCLOR 1254, Method: SUSPENSION/PLATE",active; positive. reevaluation of results: positive
same,mutagenic call,"Test System: Mouse lymphoma, Strain/Indicator: L5178Y (tk+/tk-), Metabolic Activation: None, Method: Suspension/plate",inactive; negative
O=S1OC[C@@H]2[C@H](CO1)[C@]1(Cl)C(Cl)=C(Cl)[C@@]2(Cl)C1(Cl)Cl (some centres not stated),mutagenic call,"Test System: AMES SALMONELLA TYPHIMURIUM, Strain/Indicator: TA97, Metabolic Activation: NONE, Method: STANDARD PLATE",inactive; negative
same,mutagenic call,"Test System: AMES SALMONELLA TYPHIMURIUM, Strain/Indicator: TA97, Metabolic Activation: RAT, LIVER, S-9, AROCLOR 1254, Method: STANDARD PLATE",inactive; negative
same,mutagenic call,[3],inactive; negative
same,mutagenic call,[4],inactive; negative
same,mutagenic call,[5],inactive; negative
same,mutagenic call,[6],inactive; negative
same,mutagenic call,"Test System: AMES SALMONELLA TYPHIMURIUM, Strain/Indicator: TA102, Metabolic Activation: NONE, Method: STANDARD PLATE",inactive; negative
same,mutagenic call,"Test System: AMES SALMONELLA TYPHIMURIUM, Strain/Indicator: TA102, Metabolic Activation: RAT, LIVER, S-9, AROCLOR 1254, Method: STANDARD PLATE",inactive; negative
